1 molecule from ChEMBL document CHEMBL5055680, “AMPK inhibitor BML-275 induces neuroprotection through decreasing cyt c and AIF expression after transient brain ischemia” (2021) can be followed below.

Assay [1] concerns Mus musculus. The assay can be described thus: Neuroprotective activity in C57BL/6 mouse model of transient middle cerebral artery occlusion induced cerebral ischemia reperfusion injury assessed as inhibition of apoptosis by measuring decrease in TUNEL positive nuclei in cortex at 10 mg/kg, ip measured after 12 hrs by TUNEL staining based assay (reference value: 53.64 +/- 7.63). The assay is classed as functional.

A short description of assay [2]: Downregulation of cyt-c expression in cortex of C57BL/6 mouse model of transient middle cerebral artery occlusion induced cerebral ischemia reperfusion injury measured after 24 hrs of reperfusion by immunohistochemistry. The assay is classed as functional.
The species entered for assay [3] is Mus musculus. The experiment in a line: Neuroprotective activity in C57BL/6 mouse model of transient middle cerebral artery occlusion induced cerebral ischemia reperfusion injury assessed as neuronal apoptosis by measuring increase in TUNEL positive nuclei measured after 12 hrs by TUNEL staining based assay. The assay is classed as functional, organism-based.

Assay [4] has as its system Mus musculus. The assay can be described thus: Neuroprotective activity in C57BL/6 mouse model of transient middle cerebral artery occlusion induced cerebral ischemia reperfusion injury assessed as neurological deficits at 10 mg/kg, ip measured 24 hrs after reperfusion by […] (reference value: 5.86 +/- 0.64). The assay is classed as functional.
The species named for assay [5] is Mus musculus. The experiment in a line: Neuroprotective activity in C57BL/6 mouse model of transient middle cerebral artery occlusion induced cerebral ischemia reperfusion injury assessed as neuronal apoptosis by measuring increase in caspase-3 positive cells incubated for 1 hrs by immunohistochemistry. The assay is classed as functional, organism-based.
The subject of assay [6] is Mus musculus. The experiment in a line: Neuroprotective activity in C57BL/6 mouse model of transient middle cerebral artery occlusion induced cerebral ischemia reperfusion injury assessed as inhibition of apoptosis by measuring decrease in TUNEL positive nuclei in hippocampus at 10 mg/kg, ip measured after 12 hrs by TUNEL staining based assay (reference value: 55.42 +/- 4.86). The assay is classed as functional.

The subject of assay [7] is Mus musculus. The experiment in a line: Neuroprotective activity in C57BL/6 mouse model of transient middle cerebral artery occlusion induced cerebral ischemia reperfusion injury assessed as change in infract volume at 10 mg/kg, ip measured after 24 hrs by TTC staining based assay (reference value: 21.86 +/- 4.65 %). The assay is classed as functional.
A short description of assay [8]: Downregulation of AIF expression in cortex of C57BL/6 mouse model of transient middle cerebral artery occlusion induced cerebral ischemia reperfusion injury assessed as AIP-posotive cells in ischemic cortex at 10 mg/kg, ip measured after 24 hrs of reperfusion by immunohistochemistry (reference value: 46.7 +/- 3.45). Format: functional.
For assay [9], the system named is Mus musculus. The assay can be described thus: Neuroprotective activity in C57BL/6 mouse model of transient middle cerebral artery occlusion induced cerebral ischemia reperfusion injury assessed reduction in infarct size at 10 mg/kg, ip measured after 24 hrs by TTC staining based assay. Format: functional, organism-based.
The nature of assay [10]: Downregulation of cyt-c expression in hippocampus of C57BL/6 mouse model of transient middle cerebral artery occlusion induced cerebral ischemia reperfusion injury at 10 mg/kg, ip measured after 24 hrs of reperfusion by immunohistochemistry (reference value: 20.52+/- 2.08). Format: functional.
Assay [11] can be described thus: Downregulation of cyt-c expression in cortex of C57BL/6 mouse model of transient middle cerebral artery occlusion induced cerebral ischemia reperfusion injury at 10 mg/kg, ip measured after 24 hrs of reperfusion by immunohistochemistry (reference value: 15.58 +/- 2.34). The assay is classed as functional.
Assay [12] deals with Mus musculus. The assay can be described thus: Neuroprotective activity in C57BL/6 mouse model of transient middle cerebral artery occlusion induced cerebral ischemia reperfusion injury assessed as inhibition of apoptosis by measuring decrease in caspase-3 positive cells in cortex at 10 mg/kg, ip incubated for 1 hrs by immunohistochemistry (reference value: 7.58 +/- 2.15). Format: functional.

Assay [13] in a line: Downregulation of cyt-c expression in hippocampus of C57BL/6 mouse model of transient middle cerebral artery occlusion induced cerebral ischemia reperfusion injury measured after 24 hrs of reperfusion by immunohistochemistry. Format: functional.
Assay [14] in a line: Downregulation of AIF expression […] of C57BL/6 mouse model of transient middle cerebral artery occlusion induced cerebral ischemia reperfusion injury assessed as AIP-posotive cells in hippocampus at 10 mg/kg, ip measured after 24 hrs of reperfusion by immunohistochemistry (reference value: 27.35 +/- 3.67). Format: functional.

Active and inactive are the calls of the source. No cut-off for these calls is given here.

In the case of `c1cc(-c2cnn3cc(-c4ccc(OCCN5CCCCC5)cc4)cnc23)ccn1` [DORSOMORPHIN], the Activity in the assay with Mus musculus [1] is 53.64; with Mus musculus [4], 9.26; in the assay on Mus musculus [6] it was 55.42; in the assay with Mus musculus [7] it was 42.56%; with Mus musculus [12] it was 15.63. The “fold change (FC)” value in assay [2] amounted to 45.32; in assay [8], 26.36; in [10] it was 52.08; in [11] it was 45.32; in assay [13], 52.08; in [14], 13.17. Besides, the outcome in the assay listed under Mus musculus [3], in the assay filed under Mus musculus [5] and in the assay with Mus musculus [9] was Active.
